ChEMBL document CHEMBL1129822, “Thermal atropisomerism of fully functionalized vancomycin CD, DE, and CDE ring systems” (Bioorg Med Chem Lett, 1997)

Key:
Format in all cases: ADME
[1] = Half-life at 140 degrees C in DMSO
[2] = The equilibrium constant at 140 degrees C in DMSO
[3] = Half-life at 140 degrees C in ortho dichloro benzene; conditions: ortho-dichlorobenzene
[4] = The equilibrium constant at 140 in ortho dichloro benzene
[5] = The equilibrium constant at 125 degrees C in DMSO
[6] = Half-life at 125 degrees C in DMSO
[7] = Half-life at 155 degrees C in DMSO
[8] = The equilibrium constant at 155 degrees C in DMSO

Row | Structure (SMILES) | half-life [1] [min] | k [2] [h⁻¹] | half-life [3] [min] | k [4] [h⁻¹] | k [5] [h⁻¹] | half-life [6] [min] | half-life [7] [min] | k [8] [h⁻¹]
1 | COC(=O)[C@H]1NC(=O)[C@@H](c2ccc(OC)c(Br)c2)NC(=O)[C@H](NC(=O)OC(C)(C)C)c2cc(O)c(OC)c(c2)Oc2ccc(cc2Cl)[C@H]1O[Si](C)(C)C(C)(C)C | 242 | 0.071 | 3180 | 0.0054 | – | – | – | –
2 | COc1c(O)cc2cc1Oc1ccc(cc1[N+](=O)[O-])[C@@H](O)[C@@H](NC(=O)OC(C)(C)C)C(=O)N[C@@H](CC(N)=O)C(=O)N[C@H]2C(=O)OC(C)(C)C | 5.52 | 2.06 | – | – | 0.88 | 16.8 | – | –
3 | COC(=O)[C@H]1NC(=O)[C@@H](c2ccc(OC)c(Br)c2)NC(=O)[C@H](NC(=O)OC(C)(C)C)c2cc(O)c(OC)c(c2)Oc2ccc(cc2[N+](=O)[O-])[C@H]1O[Si](C)(C)C(C)(C)C | 211 | 0.082 | 586 | 0.029 | – | – | 63.6 | 0.27
